Laboratory results: ChEMBL document CHEMBL4706559, “New indolylarylsulfone non-nucleoside reverse transcriptase inhibitors show low nanomolar inhibition of single and double HIV-1 mutant strains” (Eur J Med Chem, 2020)

Columns and labels:
[1] = target: Human immunodeficiency virus type 1 reverse transcriptase (Human immunodeficiency virus 1) (UniProt Q72547); test: Binding affinity to free form of wild type HIV-1 p66/p51 reverse transcriptase assessed as dissociation constant using poly(rA)/oligo(dT) as templates in presence of [3H]dTTP
[2] = target: Human immunodeficiency virus type 1 reverse transcriptase (Human immunodeficiency virus 1) (UniProt Q72547); test: Inhibition of wild type HIV1 p66/p51 reverse transcriptase assessed as apparent Vmax at 30 nM using fixed concentration of poly(rA)/oligo(dT) as templates in presence of 2 to 100 uM of [3H]dTTP by Michaelis-Menten analysis (reference value: 9.7 +/- 12%)
[3] = target: Human immunodeficiency virus type 1 reverse transcriptase (Human immunodeficiency virus 1) (UniProt Q72547); test: Inhibition of wild type HIV1 p66/p51 reverse transcriptase assessed as apparent Vmax at 37.5 nM using 10 to 500 uM poly(rA)/oligo(dT) as templates in presence of fixed concentration of [3H]dTTP by Michaelis-Menten analysis (reference value: 10 +/- 0.5%)
[4] = system: Human immunodeficiency virus 1; test: Inhibition of HIV1 p66/p51 reverse transcriptase K103N/Y181C double mutant assessed as apparent Km of substrate at 150 nM using fixed concentration of poly(rA)/oligo(dT) as templates in presence of 2 to 100 uM of [3H]dTTP by Michaelis-Menten analysis (reference value: 9.2 +/- 1.4 uM)
[5] = system: Human immunodeficiency virus 1; test: Inhibition of HIV1 p66/p51 reverse transcriptase K103N/Y181C double mutant assessed as apparent Vmax at 75 nM using 10 to 500 uM poly(rA)/oligo(dT) as templates in presence of fixed concentration of [3H]dTTP by Michaelis-Menten analysis (reference value: 12 +/- 1%)
[6] = target: Human immunodeficiency virus type 1 reverse transcriptase (Human immunodeficiency virus 1) (UniProt Q72547); test: Ratio of Koff of wild type HIV-1 p66/p51 reverse transcriptase/nucleic acid binary complex to Koff of wild type HIV-1 p66/p51 reverse transcriptase/nucleic acid/dTTP ternary complex using poly(rA)/oligo(dT) as templates in presence of [3H]dTTP
[7] = system: Human immunodeficiency virus 1; test: Inhibition of HIV1 p66/p51 reverse transcriptase K103N/Y181C double mutant assessed as apparent Vmax at 300 nM using fixed concentration of poly(rA)/oligo(dT) as templates in presence of 2 to 100 uM of [3H]dTTP by Michaelis-Menten analysis (reference value: 9.6 +/- 0.4%)
[8] = system: Human immunodeficiency virus 1; test: Inhibition of HIV1 p66/p51 reverse transcriptase K103N/Y181C double mutant assessed as apparent Vmax at 75 nM using fixed concentration of poly(rA)/oligo(dT) as templates in presence of 2 to 100 uM of [3H]dTTP by Michaelis-Menten analysis (reference value: 9.6 +/- 0.4%)
[9] = system: Human immunodeficiency virus 1; test: Synergistic inhibition of HIV-1 p66/p51 reverse transcriptase K103N/Y181C double mutant assessed as combination index using poly(rA)/oligo(dT) as templates in presence of [3H]dTTP preincubated enzyme with nucleic acid followed by addition of AZTTP and subsequent incubation with compound and dTTP
[10] = system: Human immunodeficiency virus 1; test: Binding affinity to free form of HIV-1 p66/p51 reverse transcriptase K103N/Y181C double mutant assessed as dissociation constant using poly(rA)/oligo(dT) as templates in presence of [3H]dTTP
[11] = target: Human immunodeficiency virus type 1 reverse transcriptase (Human immunodeficiency virus 1) (UniProt Q72547); test: Inhibition of wild type HIV1 p66/p51 reverse transcriptase assessed as apparent Vmax at 150 nM using 10 to 500 uM poly(rA)/oligo(dT) as templates in presence of fixed concentration of [3H]dTTP by Michaelis-Menten analysis (reference value: 10 +/- 0.5%)
[12] = target: Human immunodeficiency virus type 1 reverse transcriptase (Human immunodeficiency virus 1) (UniProt Q72547); test: Ratio of Kon of wild type HIV-1 p66/p51 reverse transcriptase/nucleic acid binary complex to Kon of free form of wild type HIV-1 p66/p51 reverse transcriptase using poly(rA)/oligo(dT) as templates in presence of [3H]dTTP
[13] = target: T1, Human immunodeficiency virus type 1 reverse transcriptase (Human immunodeficiency virus 1, UniProt Q72547); test: Binding affinity to wild type HIV-1 p66/p51 reverse transcriptase/nucleic acid/dTTP ternary complex using poly(rA)/oligo(dT) as templates in presence of [3H]dTTP
[14] = system: Human immunodeficiency virus 1; test: Ratio of Koff of HIV-1 p66/p51 reverse transcriptase K103N/Y181C double mutant/nucleic acid/dTTP ternary complex to Koff of free form of HIV-1 p66/p51 reverse transcriptase using poly(rA)/oligo(dT) as templates in presence of [3H]dTTP
[15] = target: Human immunodeficiency virus type 1 reverse transcriptase (Human immunodeficiency virus 1) (UniProt Q72547); test: Ratio of Koff of wild type HIV-1 p66/p51 reverse transcriptase/nucleic acid binary complex to Koff of free form of wild type HIV-1 p66/p51 reverse transcriptase using poly(rA)/oligo(dT) as templates in presence of [3H]dTTP
[16] = system: Human immunodeficiency virus 1; test: Resistance index, ratio of EC50 for antiviral activity against HIV1 harboring RT Y188L mutant infected in human MT4 cells to EC50 for antiviral activity against HIV1 NL4-3 infected in human MT4 cells; assay type: functional
[17] = Inhibition of RNA-dependent DNA polymerase activity of recombinant HIV-1 p66/p51 reverse transcriptase K103N/Y181C mutant assessed as inhibition of [3H]dTTP incorporation using poly(rA)/oligo(dT) as templates incubated for 15 mins by MicroBeta scintillation counting method; parameters: species or system Human immunodeficiency virus 1
[18] = target: Human immunodeficiency virus type 1 reverse transcriptase (Human immunodeficiency virus 1) (UniProt Q72547); test: Binding affinity to wild type HIV-1 p66/p51 reverse transcriptase/nucleic acid binary complex assessed as association constant using poly(rA)/oligo(dT) as templates in presence of [3H]dTTP
[19] = target: Human immunodeficiency virus type 1 reverse transcriptase (Human immunodeficiency virus 1) (UniProt Q72547); test: Inhibition of wild type HIV1 p66/p51 reverse transcriptase assessed as apparent Vmax at 90 nM using fixed concentration of poly(rA)/oligo(dT) as templates in presence of 2 to 100 uM of [3H]dTTP by Michaelis-Menten analysis (reference value: 9.7 +/- 12%)
[20] = Inhibition of RNA-dependent DNA polymerase activity of recombinant HIV-1 p66/p51 reverse transcriptase Y188L mutant assessed as inhibition of [3H]dTTP incorporation using poly(rA)/oligo(dT) as templates incubated for 15 mins by MicroBeta scintillation counting method; parameters: species or system Human immunodeficiency virus 1
[21] = Binding affinity to free form of HIV-1 p66/p51 reverse transcriptase K103N/Y181C double mutant using poly(rA)/oligo(dT) as templates in presence of [3H]dTTP; parameters: species or system Human immunodeficiency virus 1
[22] = system: Human immunodeficiency virus 1; test: Inhibition of HIV1 p66/p51 reverse transcriptase K103N/Y181C double mutant assessed as apparent Vmax at 150 nM using 10 to 500 uM poly(rA)/oligo(dT) as templates in presence of fixed concentration of [3H]dTTP by Michaelis-Menten analysis (reference value: 12 +/- 1%)
[23] = system: Human immunodeficiency virus 1; test: Inhibition of HIV1 p66/p51 reverse transcriptase K103N/Y181C double mutant assessed as apparent Vmax at 300 nM using 10 to 500 uM poly(rA)/oligo(dT) as templates in presence of fixed concentration of [3H]dTTP by Michaelis-Menten analysis (reference value: 12 +/- 1%)
[24] = target: T1, Human immunodeficiency virus type 1 reverse transcriptase; test: Binding affinity to wild type HIV-1 p66/p51 reverse transcriptase/nucleic acid binary complex using poly(rA)/oligo(dT) as templates in presence of [3H]dTTP

With `Cc1cc(C)cc(S(=O)(=O)c2c(C(=O)NCc3ccccc3O)[nH]c3ccc(Cl)cc23)c1` the K [1] was 4 10^-3/s, the Vmax(app) [2] was 5.6% and the Vmax(app) [3] was 4.9%. For the same compound, the Km [4] was 2.2 µM, the Vmax(app) [5] was 7.7% and the Ratio [6] was 8. For the same compound, the Vmax(app) [7] was 1.5%, the Vmax(app) [8] was 6.2% and the CI [9] was 0.6. The K [10] was 14 10^-3/s, the Vmax(app) [11] was 1.2% and the Ratio [12] was 7. It also gave a Ki [13] of 0.028 µM, a Ratio [14] of 4 and a Ratio [15] of 8. The “Ratio EC50” value [16] was over 30, the IC50 [17] was 0.076 µM and the K [18] was 96 10^-5/nM/s. The Vmax(app) [19] was 2.9%, the IC50 [20] was 0.061 µM and the Ki [21] was 0.137 µM. The Vmax(app) [22] was 6%, the Vmax(app) [23] was 3.2% and the Ki [24] was 0.036 µM.
